Source: PubChem BioAssay AID463203 (Broad Institute, 2010)
The source made the active and inactive calls.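 Rule for the calls: active = more than half of replicate measurements showing over 20% loss of kinase signal relative to plate controls; inconclusive = some but at most half of replicates over 20% loss; inactive = no replicate over 20% signal loss.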

The molecules below were run against Glycogen synthase kinase-3 alpha (Homo sapiens) (UniProt P49840) (assay: concentration-response blocking of human GSK3A – biochemical, luminescence, cell-free homogeneous, retest, dose response (AID 463203)). Conditions: GSK-3 alpha enzyme, ADP-Glo luminescence, 60 min.
Chain of Glycogen synthase kinase-3 alpha (Homo sapiens) (P49840 whole entry, looked up): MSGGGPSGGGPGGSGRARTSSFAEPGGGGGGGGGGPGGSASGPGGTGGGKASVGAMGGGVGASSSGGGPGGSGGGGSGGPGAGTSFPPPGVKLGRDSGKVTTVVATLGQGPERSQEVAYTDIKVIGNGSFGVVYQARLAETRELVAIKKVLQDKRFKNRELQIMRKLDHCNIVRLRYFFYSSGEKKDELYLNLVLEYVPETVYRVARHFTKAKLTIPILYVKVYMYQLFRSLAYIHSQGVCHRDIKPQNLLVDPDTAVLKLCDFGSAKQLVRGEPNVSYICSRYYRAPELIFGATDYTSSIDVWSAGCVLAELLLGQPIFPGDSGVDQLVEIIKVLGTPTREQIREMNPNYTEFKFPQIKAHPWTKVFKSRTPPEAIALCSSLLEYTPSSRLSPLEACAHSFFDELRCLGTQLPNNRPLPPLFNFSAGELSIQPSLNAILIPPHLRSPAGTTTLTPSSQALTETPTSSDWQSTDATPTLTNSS

| Structure (SMILES) | AC50 |
| --- | --- |
| Cc1ccccc1N=Nc1c(O)[nH]c2ccccc12 | > 30 µM (inactive) |
| CNc1cc(N2CCCC2)ccc1[N+](=O)[O-] | > 30 µM (inactive) |
| COc1cccc(/C=C2\SC(=O)NC2=O)c1OCc1ccc(C(=O)O)cc1 | 26.9 µM |
| Cc1c(C(=O)OCCOC(C)C)[nH]c2c1C(=O)CC(C)(C)C2 | 25.4 µM |
| O=C1CCCC/C1=C\Nc1ccc(O)cc1 | 21.6 µM |
| CNC(=O)NCC12CC3CC(CC(C3)C1)C2 | > 30 µM (inactive) |
| Clc1ccc(OCc2nnc(SCc3nnc(-c4ccccc4)o3)o2)c(Cl)c1 | > 30 µM (inactive) |
| O=C(O)CCSc1nnc(-c2ccncc2)n1-c1ccccc1 | > 30 µM (inactive) |
| CN(C)S(=O)(=O)c1cccc(NC(=S)NN=C(Cc2ccccc2)Cc2ccccc2)c1 | > 30 µM (inactive) |
| c1cncc(CSc2nnc3ccc(-c4cccs4)nn23)c1 | 14.4 µM |
| Cc1nn(CCOc2ccccc2)c(=O)n1-c1ccccc1F | > 30 µM (inactive) |
| CC1=CC(=C2C(=O)c3ccccc3C2=O)C=C(C)N1Cc1ccco1 | > 30 µM (inactive) |
| O=C(CSc1nnc(SCc2ccc(Cl)cc2)s1)N/N=C/c1ccccc1C(=O)O | > 30 µM (inactive) |
| NC(=O)c1cc([N+](=O)[O-])ccc1NCc1cccc([N+](=O)[O-])c1 | 3.49 µM |
| N#Cc1c(-c2ccc(F)cc2)c2c([nH]c1=O)-c1ccccc1OC2 | > 30 µM (inactive) |
| N#Cc1sc2nc3c(c(-c4ccco4)c2c1N)CCCC3 | 2.42 µM |
| Brc1ccccc1C1=Nn2c(nnc2-c2ccccc2)SC1 | > 30 µM (inactive) |
| O=C1C(SCCO)=C(SCCO)C(=O)c2ccccc21 | > 30 µM (inactive) |
| CCc1ccc(C2CC(c3ccc(F)cc3)Nc3nc(N)nn32)cc1 (centres undefined) | > 30 µM (inactive) |
| CCOC(=O)c1ccc(NC(=S)NCCc2ccccc2)cc1 | > 30 µM (inactive) |
| COc1ccc(/C=N\NC(=O)c2ccccc2Br)cc1COc1ccccc1 | > 30 µM (inactive) |
| Cc1ccc2oc(=O)c3cnn(CC(=O)N4CCN(c5ccccc5)CC4)c3c2c1 | > 30 µM (inactive) |
| Cc1cccc(C(=O)O/N=C(\N)c2cccc([N+](=O)[O-])c2)c1 | > 30 µM (inactive) |
| O=C(Nc1ccc(C(=O)NC2CCCCC2)cc1)c1cccnc1 | > 30 µM (inactive) |
| CC1CCCN(Cc2c(O)ccc3c2O/C(=C\c2ccco2)C3=O)C1 (centres undefined) | 9.29 µM |
| Nc1nonc1-n1nnc(C(=O)N/N=C/c2ccncc2)c1CSc1ccc(Cl)cc1 | > 30 µM (inactive) |
| COCCn1c(SCC(=O)Nc2cc(C)on2)nc2ccccc21 | > 30 µM (inactive) |

| Structure (SMILES) | AC50 |
| --- | --- |
| O=C(O)c1ccc2c(c1Nc1ccccc1)C(=O)c1ccccc1C2=O | 18.6 µM |
| O=C(Nc1cccc(-c2cnc3ccccc3n2)c1)c1ccncc1 | > 30 µM (inactive) |
| O=C1OCCC/C1=C\c1ccc2c(c1)OCO2 | 23.3 µM |
| C[C@H]1CCCC(=O)CCCCCc2cc(O)cc(O)c2C(=O)O1 | 28.3 µM |
| CCOC(=O)CSc1nc(N)c(C#N)c(-c2cccs2)c1C#N | > 30 µM (inactive) |
| CC(=O)c1cnc(Nc2ccccc2)s1 | 20.2 µM |
| CC1(C)CC(=O)C2=C(C1)Nc1ccccc1[S@]2=O | > 30 µM (inactive) |
| CCNc1ccccc(C(=O)/C=C/c2ccc3c(c2)OCO3)c1=O | > 30 µM (inactive) |
| O=Cc1c(NCCc2cccc(F)c2)c2ccccc2[nH]c1=O | 15.2 µM |
| CCCC(NS(=O)(=O)c1ccc(OC)cc1)C(=O)O (centres undefined) | > 30 µM (inactive) |
| Oc1ccc2oc3c(c2c1/C=N/n1cnnc1)CCCC3 | > 30 µM (inactive) |
| Cc1cccc(NC(=O)CSCc2nc3c(nnn3Cc3ccc(F)cc3)c(=O)[nH]2)c1C | > 30 µM (inactive) |
| Cc1nc(N2CCOCC2)nc(N2CCCCC2)c1[N+](=O)[O-] | > 30 µM (inactive) |
| CCCN(CCC)Cc1c(C(=O)N/N=C/C(C)=C\c2ccco2)nnn1-c1nonc1N | > 30 µM (inactive) |
| O=C(CSc1cccc2cccnc12)N/N=C/c1ccc(O)cc1 | > 30 µM (inactive) |
| COc1ccc2nc(NC(=O)CN3CCN(C)CC3)sc2c1 | > 30 µM (inactive) |
| CCCCOC(=O)Nc1nnc(COc2ccccc2)s1 | > 30 µM (inactive) |
| Cc1ccc(-n2nnnc2SCc2nnc(-c3ccccc3Br)o2)cc1 | > 30 µM (inactive) |
| Cc1c(C(=O)N2CCN(c3ccccc3)CC2)oc2c(Cl)cccc12 | > 30 µM (inactive) |
| CCOC(=O)c1sc(NC(=O)C2CCC2)cc1C | > 30 µM (inactive) |
| Cc1cc2oc(C(=O)NCCc3ccc(S(N)(=O)=O)cc3)c(C)c2cc1C | > 30 µM (inactive) |
| O=C(Nc1ccccc1-c1nnc(SCc2ccc(Cl)cc2Cl)o1)c1ccccc1 | > 30 µM (inactive) |
| CCC(C)Nc1nc(N)c([N+](=O)[O-])c(N2CCCCCC2)n1 (centres undefined) | 10.9 µM |
| COc1cccc(-c2c(C(=O)N/N=C/c3ccoc3)nnn2-c2nonc2N)c1 | 7.92 µM |
| O=c1cc(-c2ccccc2)oc2ccccc12 | > 30 µM (inactive) |
| COc1ccc(S(=O)(=O)Nc2c(C(=O)O)[nH]c3ccc(OC)cc23)cc1 | 30.7 µM |
| NC(=O)c1cc([N+](=O)[O-])ccc1NCc1ccc(O)cc1 | 4.32 µM |
